According to patent US20250215039A1, “NUCLEOSIDES FOR TREATING CANCER” (PRIMEFOUR THERAPEUTICS, INC., priority 2022, published 2025):
Read-outs that look alike come from different tables or passages of the source.

Test system: cancer cell lines
Assay: Cancer cell proliferation activity (CellTiterGlo, 72 h)
Assay type: cell-based
Settings: 72 h, 72 h, read-out: IC50 cell proliferation
Procedure, shortened: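 Cells seeded overnight at 37 °C, then dosed with compound at 0.1% final DMSO and incubated 72 h at 37 °C (5% or 10% CO2 by medium).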

For `Nc1nc(F)nc2c1ncn2[C@@H]1O[C@H](CO)[C@@H](O)[C@H]1O` [compound 184, (2R,3R,4S,5R)-2-(6-amino-2-fluoro-9H-purin-9-yl)-5-(hydroxymethyl)tetrahydrofuran-3,4-diol], the IC50 (5637 (bladder)) was 190 nM, the IC50 (CLS439 (bladder)) was 60 nM and the IC50 (HS729 (muscle)) was 100 nM. It also gave an IC50 (J82 (bladder)) of 100 nM, an IC50 (JAR (placenta)) of 40 nM and an IC50 (MT3 (breast)) of 90 nM. For the same compound, the IC50 (PANCI (pancreas)) was 130 nM, the IC50 (PC3 (prostate)) was 40 nM and the IC50 (RD (muscle)) was 60 nM. It also gave an IC50 (T24 (bladder)) of 60 nM, an IC50 (Homo sapiens, 22Rv1, 72 h, 22RV1 (prostate)) of 220 nM and an IC50 (Homo sapiens, 786-0, 72 h, 786O (kidney)) of 50 nM. It also gave an IC50 (Homo sapiens, A204, 72 h, A204 (muscle)) of 20 nM, an IC50 (Homo sapiens, A549, 72 h, A549 (lung)) of 40 nM and an IC50 (Homo sapiens, A673, 72 h, A673 (bone)) of 270 nM. It also gave an IC50 (Homo sapiens, A2780, 72 h, A2780 (ovary)) of 150 nM, an IC50 (Homo sapiens, A-375, 72 h, A375 (skin)) of 40 nM and an IC50 (Homo sapiens, A-431, 72 h, A431 (skin)) of 40 nM. It also gave an IC50 (Homo sapiens, ACHN, ACHN (kidney)) of 20 nM, an IC50 (Homo sapiens, ASPC1, 72 h, ASPC1 (pancreas)) of 30 nM and an IC50 (Homo sapiens, BT-20, 72 h, BT20 (breast)) of 30 nM. It also gave an IC50 (Homo sapiens, BXPC-3, 72 h, BXPC3 (pancreas)) of 80 nM, an IC50 (Homo sapiens, C-33-A, C33A (endometrial)) of 50 nM and an IC50 (Homo sapiens, CAKI-1, 72 h, CAKI1 (kidney)) of 10 nM. The IC50 (Homo sapiens, COLO 205, 72 h, COLO205 (colon)) was 120 nM, the IC50 (Homo sapiens, COLO-678, 72 h, COLO678 (colon)) was 60 nM and the IC50 (Homo sapiens, Ca-Ski, CASKI (endometrial)) was 30 nM. The IC50 (Homo sapiens, Caco-2, 72 h, CACO2 (colon)) was 190 nM, the IC50 (Homo sapiens, Calu-6, 72 h, CALU6 (lung)) was 30 nM and the IC50 (Homo sapiens, DLD-1, 72 h, DLD1 (colon)) was 90 nM. It also gave an IC50 (Homo sapiens, DU-145, 72 h, DU145 (prostate)) of 20 nM, an IC50 (Homo sapiens, EFO-21, 72 h, EFO21 (ovary)) of 70 nM and an IC50 (Homo sapiens, EJ-28, 72 h, EJ28 (bladder)) of 30 nM. It also gave an IC50 (Homo sapiens, Granta-519, 72 h, GRANTA-519 (hematological)) of 110 nM, an IC50 (Homo sapiens, HCT-15, 72 h, HCT15 (colon)) of 40 nM and an IC50 (Homo sapiens, HCT-116, 72 h, HCT116 (colon)) of 140 nM. For the same compound, the IC50 (Homo sapiens, HEK293, 72 h, HEK293 (kidney)) was 50 nM, the IC50 (Homo sapiens, HL-60, 72 h, HL-60 (hematological)) was 40 nM and the IC50 (Homo sapiens, HT-29, 72 h, HT29 (colon)) was 70 nM. It also gave an IC50 (Homo sapiens, HT-1080, 72 h, HT1080 (connective tissue)) of 70 nM, an IC50 (Homo sapiens, HeLa, HELA (endometrial)) of 70 nM and an IC50 (Homo sapiens, HepG2, 72 h, HEPG2 (liver)) of 40 nM. For the same compound, the IC50 (Homo sapiens, Hs-578T, HS578T (breast)) was 80 nM, the IC50 (Homo sapiens, IGROV-1, 72 h, IGROV1 (ovary)) was 50 nM and the IC50 (Homo sapiens, IMR-90, 72 h, IMR90 (lung)) was 30 nM. It also gave an IC50 (Homo sapiens, JEG-3, 72 h, JEG3 (placenta)) of 40 nM, an IC50 (Homo sapiens, JIMT-1, 72 h, JIMT1 (breast)) of 20 nM and an IC50 (Homo sapiens, K562, 72 h, K-562 (hematological)) of 120 nM. For the same compound, the IC50 (Homo sapiens, Kasumi 1, 72 h, KASUMI-1 (hematological)) was 10 nM, the IC50 (Homo sapiens, L-363, 72 h, L-363 (hematological)) was 20 nM and the IC50 (Homo sapiens, LoVo, LOVO (colon)) was 20 nM. For the same compound, the IC50 (Homo sapiens, MCF7, 72 h, MCF7 (breast)) was 100 nM, the IC50 (Homo sapiens, MDA-MB-231, 72 h, MDAMB231 (breast)) was 40 nM and the IC50 (Homo sapiens, MDA-MB-435, 72 h, MDAMB435 (skin)) was 50 nM. The IC50 (Homo sapiens, MDA-MB-436, 72 h, MDAMB436 (breast)) was 40 nM, the IC50 (Homo sapiens, MDA-MB-468, 72 h, MDAMB468 (breast)) was 80 nM and the IC50 (Homo sapiens, MG-63, 72 h, MG63 (bone)) was 390 nM. The IC50 (Homo sapiens, MHH-ES-1, 72 h, MHHES1 (bone)) was 70 nM, the IC50 (Homo sapiens, MIA PaCa-2, 72 h, MIAPACA2 (pancreas)) was 130 nM and the IC50 (Homo sapiens, MINO, MINO (hematological)) was 10 nM. The IC50 (Homo sapiens, MV4-11, 72 h, MV4-11 (hematological)) was 20 nM, the IC50 (Homo sapiens, NCI-H23, 72 h, NCI-H23 (lung)) was 40 nM and the IC50 (Homo sapiens, NCI-H82, 72 h, NCIH82 (lung)) was 60 nM. The IC50 (Homo sapiens, NCI-H292, 72 h, NCIH292 (lung)) was 90 nM, the IC50 (Homo sapiens, NCI-H460, 72 h, NCIH460 (lung)) was 40 nM and the IC50 (Homo sapiens, OVCAR-3, 72 h, OVCAR3 (ovary)) was 40 nM. The IC50 (Homo sapiens, OVCAR-4, 72 h, OVCAR4 (ovary)) was 50 nM, the IC50 (Homo sapiens, PLC-PRF-5, 72 h, PLCPRF5 (liver)) was 230 nM and the IC50 (Homo sapiens, Panc1005, 72 h, PANC1005 (pancreas)) was 50 nM. It also gave an IC50 (Homo sapiens, Ramos, RAMOS (hematological)) of 140 nM, an IC50 (Homo sapiens, SAOS-2, 72 h, SAOS2 (bone)) of 50 nM and an IC50 (Homo sapiens, SF-268, 72 h, SF268 (brain)) of 160 nM. It also gave an IC50 (Homo sapiens, SF-295, 72 h, SF295 (brain)) of 160 nM, an IC50 (Homo sapiens, SK-BR-3, 72 h, SKBR3 (breast)) of 10 nM and an IC50 (Homo sapiens, SK-HEP1, 72 h, SKHEP1 (liver)) of 20 nM. For the same compound, the IC50 (Homo sapiens, SK-LMS-1, 72 h, SKLMS1 (uterus)) was 40 nM, the IC50 (Homo sapiens, SK-MEL-5, 72 h, SKMEL5 (skin; SKMELS [sic] in Table 9E)) was 50 nM and the IC50 (Homo sapiens, SK-MEL-28, 72 h, SKMEL28 (skin)) was 100 nM. The IC50 (Homo sapiens, SK-N-AS, SKNAS (brain)) was 30 nM, the IC50 (Homo sapiens, SK-N-SH, SKNSH (brain)) was 30 nM and the IC50 (Homo sapiens, SK-OV-3, 72 h, SKOV3 (ovary)) was 50 nM. It also gave an IC50 (Homo sapiens, SNB-75, 72 h, SNB75 (brain)) of 100 nM, an IC50 (Homo sapiens, SU-DHL10, 72 h, SU-DHL-10 (hematological)) of 180 nM and an IC50 (Homo sapiens, SU-DHL-6, 72 h, SU-DHL-6 (hematological)) of 10 nM. For the same compound, the IC50 (Homo sapiens, SW-620, 72 h, SW620 (colon)) was 30 nM, the IC50 (Homo sapiens, TE-671, 72 h, TE671 (muscle)) was 150 nM and the IC50 (Homo sapiens, THP-1, 72 h, THP-1 (hematological)) was 20 nM. It also gave an IC50 (Homo sapiens, U2OS, U20S (bone; U2OS in Table 9E)) of 40 nM, an IC50 (Homo sapiens, U-87 MG, U87MG (brain)) of 30 nM and an IC50 (Homo sapiens, UMUC3, 72 h, UMUC3 (bladder)) of 30 nM. For the same compound, the IC50 (Homo sapiens, UO-31, 72 h, UO31 (kidney)) was 50 nM, the IC50 (Homo sapiens, WSU-NHL, WSU-NHL (hematological)) was 30 nM and the IC50 (NCI-H358M, NCIH358M (lung)) was 70 nM. The IC50 (PBMC, PBMC (hematological)) was 180 nM and the IC50 (RD-ES, RDES (bone)) was 20 nM.
